Source: patent publication US20240336604A1 (THE UNITED STATES OF AMERICA, AS REPRESENTED BY THE …, priority 2021, published 2024)

Legend:
Assay type in all cases: cell-based
D3 DAR [1] = biological target: T1, D3 DAR (Homo sapiens, UniProt P35462); experiment: Go BRET activation assay, D3 DAR; conditions: EC80 DA (30 nM); for Emax: 5 min, read-out: D3 Go BRET Imax
Description: Briefly, HEK293T cells transiently expressing either the D2 DAR or D3 DAR and GαoA-Rluc8, untagged-β1, and mVenus-γ2 were harvested with EBSS, plated in 96-well white plates at 20,000 cells/well in DPBS and incubated at RT for 45 min. […] BRET signal was determined by quantifying and calculating the ratio of the light emitted by mVenus (525 nm) over that emitted by RLuc8 (485 nm) using a PHERAstar FSX Microplate Reader (BMG Labtech).

D3 DAR [2] = biological target: T1, D3 DAR; experiment: DiscoverX D3 DAR β-arrestin recruitment assay; parameters: host or cells: CHO; conditions: for IC50: EC80 concentration of DA (30 nM), read-out: D3 DAR IC50; for D3 DAR Imax / Emax: Imax=maximum inhibition, EC80 DA (30 nM)
Description: A D3 DAR β-arrestin cell line from DiscoverX (Fremont, CA) was used as described in the protocol below (Table 2). A CHO cell line engineered to overexpress the D3 DAR fused with a small 42-amino acid fragment of β-galactosidase called ProLink™ and a fusion protein consisting of β-arrestin and a larger N-terminal deletion mutant of β-galactosidase was used (DiscoverX catalogue number 93-0579C2). When the D3 DAR is activated by dopamine, it stimulates binding of β-arrestin to ProLink-tagged D3 DARs, and the two complementary parts of β-galactosidase form a functional enzyme. When substrate (PathHunter® Detection reagent, DiscoverX 93-0001) is added, β-galactosidase hydrolyzes it and generates a chemiluminescent signal.

D2 DAR = D2 DAR (Homo sapiens, UniProt P14416); experiment: DiscoverX D2 DAR β-arrestin recruitment assay; parameters: host or cells: CHO; conditions: EC80 concentration of DA (1 μM)
D2 DAR, sequence (P14416 whole entry, the tested form may be a part): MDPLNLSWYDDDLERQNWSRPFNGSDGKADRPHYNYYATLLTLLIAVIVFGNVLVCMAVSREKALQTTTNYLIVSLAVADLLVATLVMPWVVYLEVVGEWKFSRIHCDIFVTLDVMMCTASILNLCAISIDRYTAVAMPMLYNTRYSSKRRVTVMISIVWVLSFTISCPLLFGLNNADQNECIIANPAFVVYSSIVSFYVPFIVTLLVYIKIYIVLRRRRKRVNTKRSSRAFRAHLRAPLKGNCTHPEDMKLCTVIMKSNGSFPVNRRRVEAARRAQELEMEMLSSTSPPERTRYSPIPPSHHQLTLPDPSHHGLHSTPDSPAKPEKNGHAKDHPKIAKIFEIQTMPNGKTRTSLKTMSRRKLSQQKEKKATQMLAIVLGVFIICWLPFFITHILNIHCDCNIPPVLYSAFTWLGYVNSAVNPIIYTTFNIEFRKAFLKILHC
Description: For a secondary-screen and selectivity assays, DAR PathHunter®-arrestin GPCR cell lines from DiscoverX (Fremont, CA) were used. In the D2 DAR PathHunter®-arrestin GPCR cell line, the D2 DAR is overexpressed and fused with a small 42-amino acid fragment of β-galactosidase called ProLink™ on a CHO cellular background expressing a fusion protein of β-arrestin and a larger N-terminal deletion mutant of β-galactosidase (“enzyme acceptor”). When the D2 DAR is activated by dopamine, it stimulates binding of β-arrestin to the ProLink-tagged DAR and the two complementary parts of β-galactosidase form a functional enzyme. When substrate (PathHunter™ Detection reagent) is added, β-galactosidase hydrolyzes it and generates a chemiluminescent signal.

T1 sequence (P35462 whole entry): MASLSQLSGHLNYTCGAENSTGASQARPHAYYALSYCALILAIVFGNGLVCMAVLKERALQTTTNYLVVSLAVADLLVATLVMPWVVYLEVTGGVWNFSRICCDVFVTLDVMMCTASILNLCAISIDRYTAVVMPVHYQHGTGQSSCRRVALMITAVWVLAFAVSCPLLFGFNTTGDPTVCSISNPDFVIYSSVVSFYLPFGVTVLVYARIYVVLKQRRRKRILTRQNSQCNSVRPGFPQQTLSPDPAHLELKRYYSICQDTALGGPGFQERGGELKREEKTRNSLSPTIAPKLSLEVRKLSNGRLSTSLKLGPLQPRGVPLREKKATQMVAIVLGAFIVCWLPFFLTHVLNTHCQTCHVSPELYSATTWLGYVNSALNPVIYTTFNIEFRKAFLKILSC

Compound	D3 Go BRET Imax (D3 DAR [1])	IC50 (D3 DAR [1]) [µM]	IC50 (D3 DAR [2]) [µM]	D3 DAR Imax (D3 DAR [2])	D2 DAR Imax (D2 DAR)	IC50 (D2 DAR) [µM]	Emax (D3 DAR [1]) [%]	Emax (D3 DAR [2]) [%]
N-(3-choro-4-methylphenyl)-2,5-dimethyl-4-(pyrrolidine-1-carbonyl)-1H-pyrrole-3-sulfonamide [compound 31]	++ (a “++” indicates a detectable Imax of more than 100%, indicative of possible inverse agonist activity)	10 to 50	> 100	Curve Incomplete	Curve Incomplete	> 100		
Cc1[nH]c(C)c(S(=O)(=O)Nc2ccc(Cl)c(C(F)(F)F)c2)c1C(=O)N1CCCC1 [compound 7]		1 to 10	< 10		NA (“NA” indicates not active)	> 100	> 100	80 to 100
Cc1[nH]c(C)c(S(=O)(=O)Nc2cc(Cl)c(C(F)(F)F)cc2Br)c1C(=O)N1CCC(F)(F)C1 [compound 41, N-(2-bromo-5-chloro-4-(trifluoromethyl)phenyl)-4-(3,3-difluoropyrrolidine-1-carbonyl)-2,5-dimethyl-1H-pyrrole-3-sulfonamide]			< 10		NA (“NA” indicates not active)	> 100		80 to 100
Cc1[nH]c(C)c(S(=O)(=O)Nc2ccc(F)c(Cl)c2)c1C(=O)N1CCCC1 [compound 13]		10 to 50	10 to 50		NA (“NA” indicates not active)	> 100	> 100	80 to 100
CCOC(=O)C1=NOC2(C1)C(=O)Nc1ccc(OC(F)(F)F)cc12 (stereo not shown) [compound 44]	NA (NA means not active)	> 50	< 10		NA (“NA” indicates not active)	> 100		80 to 100
Cc1ccc(NS(=O)(=O)c2c(C)[nH]c(C)c2C(=O)N2CCC(F)(F)C2)cc1Cl [Cmp. 2]		10 to 50	10 to 50		NA (“NA” indicates not active)	> 100	> 100	80 to 100
Cc1ccc(NS(=O)(=O)c2c(C)[nH]c(C(F)(F)F)c2C(=O)N2CCCC2)cc1Cl [compound 38]		1 to 10	< 10		NA (“NA” indicates not active)	> 100	> 100	80 to 100
Cc1[nH]c(C)c(S(=O)(=O)Nc2ccc(C(F)(F)F)c(Cl)c2)c1C(=O)N1CC(F)(F)C(F)(F)C1 [compound 27, N-(3-chloro-4-(trifluoromethyl)phenyl)-2,5-dimethyl-4-(3,3,4,4-tetrafluoropyrrolidine-1-carbonyl)-1H-pyrrole-3-sulfonamide]		1 to 10	10 to 50		NA (“NA” indicates not active)	> 100	> 100	80 to 100
CCc1[nH]c(CC)c(S(=O)(=O)Nc2ccc(C(F)(F)F)c(Cl)c2)c1C(=O)N1CCCC1 [compound 39, N-(3-chloro-4-(trifluoromethyl)phenyl)-2,5-diethyl-4-(pyrrolidine-1-carbonyl)-1H-pyrrole-3-sulfonamide]		1 to 10	10 to 50		NA (“NA” indicates not active)	> 100	> 100	80 to 100
Cc1ccc(NS(=O)(=O)c2c(C)[nH]c(C)c2C(=O)N2CCCC2C)cc1Cl (stereo not shown) [compound 3]		1 to 10	10 to 50		NA (“NA” indicates not active)	> 100	> 100	80 to 100
Cc1[nH]c(C)c(S(=O)(=O)Nc2cccc(Cl)c2)c1C(=O)N1CCCC1 [compound 14]		1 to 10	10 to 50		NA (“NA” indicates not active)	> 100	> 100	80 to 100
Cc1ccc(CNS(=O)(=O)c2c(C)[nH]c(C)c2C(=O)N2CCCC2)cc1Cl [compound 9]	NA (NA means not active)	> 50	50 to 100	Curve Incomplete	NA (“NA” indicates not active)	> 100		
CCc1ccc(NS(=O)(=O)c2c(C)[nH]c(C)c2C(=O)N2CCCC2)cc1 [compound 15]		10 to 50	< 10		NA (“NA” indicates not active)	> 100	80 to 100	80 to 100
CCNC(=O)c1c(C)[nH]c(C)c1S(=O)(=O)Nc1ccc(C(F)(F)F)c(Cl)c1 [compound 33, 4-(N-(3-chloro-4-(trifluoromethyl)phenyl)sulfamoyl)-N-ethyl-2,5-dimethyl-1H-pyrrole-3-carboxamide]		10 to 50	< 10		NA (“NA” indicates not active)	> 100	> 100	80 to 100
Cc1ccc(NS(=O)(=O)c2c(C)[nH]c(C)c2C(=O)N2CCC2)cc1Cl [compound 6]		10 to 50	10 to 50		NA (“NA” indicates not active)	> 100	> 100	80 to 100
Cc1ccc(NS(=O)(=O)c2c(C)[nH]c(C)c2C(=O)N2CCCC2)cc1C [compound 12]		> 50	10 to 50		NA (“NA” indicates not active)	> 100		80 to 100
Cc1[nH]c(C)c(S(=O)(=O)Nc2ccc(C(F)(F)F)c(Cl)c2)c1C(=O)O [compound 22, 4-(N-(3-chloro-4-(trifluoromethyl)phenyl)sulfamoyl)-2,5-dimethyl-1H-pyrrole-3-carboxylic acid]		10 to 50	50 to 100	Curve Incomplete	NA (“NA” indicates not active)	> 100	> 100	
CCc1ccc(NS(=O)(=O)c2c(C)[nH]c(C)c2C(=O)N2CCCC2)cc1Cl [compound 8]		1 to 10	10 to 50		NA (“NA” indicates not active)	> 100	80 to 100	80 to 100
Cc1ccc(NS(=O)(=O)c2c(C)[nH]c(C)c2C(=O)N2CCCC2)cc1F [compound 16]		10 to 50	10 to 50		NA (“NA” indicates not active)	> 100	> 100	80 to 100
Cc1ccc(NS(=O)(=O)c2c(C)[nH]c(C)c2C(=O)N2CCCC2)cc1 [compound 10]		> 50	10 to 50		NA (“NA” indicates not active)	> 100		80 to 100
N-(3-chloro-4-(trifluoromethyl)phenyl)-2,5-dimethyl-4-(morpholine-4-carbonyl)-1H-pyrrole-3-sulfonamide [compound 30]			> 100	Curve Incomplete	NA (“NA” indicates not active)	> 100		
CCOC(=O)C1=NOC2(C1)C(=O)Nc1ccc(OC(F)(F)F)cc12 (stereo not shown) [compound 45]			10 to 50	+ (A “+” is used to denote compounds with D3 DAR Imax (Imax=maximum inhibition) between 80% to 100%)	NA (“NA” indicates not active)	> 100		
